According to patent US8344009B2, “Substituted phenoxy thiazolidinediones as estrogen related receptor-á modulators” (priority 2007, dated 2013):
Marks after values point to notes of the source that are not given here.

Tests used:
C57/BL6 male mice = test: C57/Bl6 diet induced obesity mouse model; assay type: in vivo
From the text: C57/B16 mice placed on a high fat diet are characterized by hypertriglyceridemia, impaired glucose tolerance and develop hepatic steatosis. Forty C57/BL6 male mice were received at seven weeks of age, allowed to acclimate for one week, placed on high fat diet (Test Diet 58Y1 60% of the calories from fat) for 6 weeks, and then single housed on the same diet for an additional five weeks. Body mass composition and insulin were used to randomize the animals into three groups. […] Ten additional animals were maintained on a low fat diet (4% calories from fat) and during the course of the study were given vehicle orally once a day. Blood was collected from the tail to evaluate glucose, triglyceride, FFA and insulin levels. Body weight and body composition were also recorded. Upon necropsy animals were bled through the orbital sinus under CO2:O2 anesthesia, sacrificed, and several tissues were collected and frozen in liquid nitrogen for storage at −80° C. for further use. Serum plasma samples were prepared by centrifugation in EDTA containing tubes, transferred to 96 well plates and stored at −80° C. Insulin, FFA and triglyceride levels were obtained via Day 10 tail bleed. On day fourteen an OGTT (Oral Glucose Tolerance Test) was done to determine glucose disposal rates in C57B16 mice treated with compound.

ZDF fa/fa male rats = test: ZDF diabetic rat model at 0.08, 0.4, 2 and 10 mpk; assay type: in vivo; conditions: for % Hb1Ac / FFA (NEFA) / Glucose / Triglycerides / cholesterol / ketone: 28 day ZDF efficacy study; for circulating glucose levels upon intraperitoneal delivery of insulin (ITT): FIG. 10
From the text: Briefly, sixty-five ZDF fa/fa male rats were received at four weeks of age and allowed to acclimate for one week. At five week of age the animals were single housed in cages in a temperature-controlled room with 12-hour light/dark cycle. They were allowed ad libitum access to water and food and throughout the study were maintained on a Purina 5008 diet. […] Animals were given Compound 1 orally once a day for 28 days in the morning at 0.08, 0.4, 2.0 and 10 mpk. The vehicle used for Compound 1 in this study consisted of 15% VE-TEPG, 30% PEG400 and 55% water. Food intake, body weight, glucose, insulin, triglyceride and free fatty acid levels were monitored throughout the study using blood collected from the tail vein. At day 16 of the study an insulin tolerance test (ITT) was done to evaluate peripheral insulin sensitivity. On day 22 an OGTT was done to assess glucose disposal rates. On the day of the necropsy the rats were bled through the orbital sinus under CO2:O2 anesthesia. Animals were sacrificed and several tissues were collected, frozen in liquid nitrogen and stored at −80° C. Serum plasma samples were prepared by centrifugation in EDTA containing tubes, transferred into 96 well plates and stored at −80° C.

[1] = biological target: T1, ERR1 (also known as ERR-α or ERR-1) (Homo sapiens, UniProt P11474); test: TR-FRET assay (disruption of co-activator peptide binding to ERR1 LBD); assay type: biochemical
T1 sequence (P11474 193-421 limits assumed): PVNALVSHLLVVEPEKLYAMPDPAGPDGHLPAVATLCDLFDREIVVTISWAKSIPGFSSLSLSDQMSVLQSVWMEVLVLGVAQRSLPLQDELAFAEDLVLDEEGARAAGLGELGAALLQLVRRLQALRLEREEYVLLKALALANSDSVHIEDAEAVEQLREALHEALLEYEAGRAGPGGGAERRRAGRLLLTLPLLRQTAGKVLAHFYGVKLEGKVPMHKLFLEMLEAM
Method: Time-Resolved Fluorescence Resonance Energy Transfer (TR-FRET) experiments were performed to examine the functional response of ERR1 (also known as ERR-α or ERR-1) ligands. The TR-FRET assay described herein relied on the conformation of ERR1 for binding to a co-activator peptide: when a test compound binds to ERR1 and alters its conformation, it can disrupt the binding of the co-activator peptide. The components of this homogeneous secondary assay included: the ^6His-tagged-ERR1LBD, a GST-labeled-hSRC2 co-activator polypeptide and a fluorescent donor/acceptor pair from CIS bio international htrf/bioassays (Bedford, Mass.) using both an α-GST Europium Cryptate (Eu) label and an α^6His-XL665 (allophycocyanin) fluorophore.
Reactions were allowed to reach equilibrium at 25° C. for 4-18 hours before collecting data on the Analyst from LJL Biosystems (Molecular Devices Sunnyvale, Calif.). […] Dose response curves were fitted using a hyperbolic equation and the data reported is the average of 3 independent experiments.

[2] = 10 mpk once a day, HFD, 10 days
[3] = 10 mpk, after 14 days of treatment
[4] = 30 mpk once a day, HFD, 10 days
[5] = 30 mpk, after 14 days of treatment

## COc1cc(/C=C2\SC(=O)NC2=O)ccc1Oc1ccc(C#N)cc1C(F)(F)F [Compound 1, 4-[4-(2,4-Dioxo-thiazolidin-5-ylidenemethyl)-2-methoxy-phenoxy]-3-trifluoromethyl-benzonitrile]
C57/BL6 male mice; [2]
  FFA: 0.38* mEq/L
  Insulin: 1.4* μg/L
C57/BL6 male mice; 10 mpk once a day, HFD, 10 days, tail bleed
  Triglyceride: 58** mg/dL
C57/BL6 male mice; [3]
  AUC 0-60 min of glucose in OGTT: 15077 mg/dL/1 hr
  AUC 0-120 min of glucose in OGTT: 27984 mg/dL/2 hr
C57/BL6 male mice; 10 mpk, treated for 18 days
  3-hydroxy-butyrate: 6.0 ×10−5
  FFA (NEFA): 0.49 mEq
  Glucose: 176 mg/dL
  LDL: 12 mg/dL
  Triglyceride: 123 mg/dL
C57/BL6 male mice; [4]
  FFA: 0.40* mEq/L
  Insulin: 1.3* μg/L
C57/BL6 male mice; 30 mpk once a day, HFD, 10 days, tail bleed
  Triglyceride: 59* mg/dL
C57/BL6 male mice; [5]
  AUC 0-60 min of glucose in OGTT: 14425* mg/dL/1 hr
  AUC 0-120 min of glucose in OGTT: 28540 mg/dL/2 hr
C57/BL6 male mice; 30 mpk, treated for 18 days
  3-hydroxy-butyrate: 9.1* ×10−5
  FFA (NEFA): 0.38* mEq
  Glucose: 174 mg/dL
  LDL: 7* mg/dL
  Triglyceride: 58*** mg/dL
C57/BL6 male mice; FIG. 2 and Table VI, after 14 days of treatment
  plasma glucose following an oral glucose tolerance test: reduces fasting plasma glucose following an oral glucose tolerance test
ZDF fa/fa male rats; 0.08 mpk orally once a day
  Body weight change (0-28 day): 71.7
  Total food intake (0-28 days): 804.5
ZDF fa/fa male rats; 0.08 mpk
  % Hb1Ac: 10.1%
  FFA (NEFA): 1.2 mM
  Glucose: 444 mg/dL
  Triglycerides: 770 mg/dL
  cholesterol: 118 mg/dL
  ketone: 162 µmol/L
ZDF fa/fa male rats; 0.4 mpk orally once a day
  Body weight change (0-28 day): 61.9
  Total food intake (0-28 days): 792.3
ZDF fa/fa male rats; 0.4 mpk
  % Hb1Ac: 10.0%
  FFA (NEFA): 0.61 mM
  Glucose: 419 mg/dL
  Triglycerides: 672 mg/dL
  cholesterol: 119 mg/dL
  ketone: 113 µmol/L
ZDF fa/fa male rats; 2.0 mpk orally once a day
  Body weight change (0-28 day): 80.4
  Total food intake (0-28 days): 792.6
ZDF fa/fa male rats; 2.0 mpk
  % Hb1Ac: 8.8%
  FFA (NEFA): 0.87 mM
  Glucose: 376 mg/dL
  Triglycerides: 605 mg/dL
  cholesterol: 117 mg/dL
  ketone: 95* umol/L
ZDF fa/fa male rats; 10 mpk orally once a day
  Body weight change (0-28 day): 95.4
  Total food intake (0-28 days): 771.4
ZDF fa/fa male rats; 10.0 mpk
  % Hb1Ac: 7.7%
  FFA (NEFA): 0.75 mM
  Glucose: 274* mg/dL
  Triglycerides: 506 mg/dL
  cholesterol: 121 mg/dL
  ketone: 85* umol/L
ZDF fa/fa male rats
  circulating glucose levels upon intraperitoneal delivery of insulin (ITT): reduction in circulating glucose levels
ZDF fa/fa male rats; listed as compound 1
  circulating glucose levels upon intraperitoneal delivery of insulin (ITT): normalizing glucose levels at the 30 minute time point
ZDF fa/fa male rats; FIG. 10 right panel, 0-60 and 0-120 minute time point
  AUC of glucose during the ITT: reduction of AUC of glucose
ZDF fa/fa male rats; FIG. 11, after a 4 and 16 hour fast
  fasting glucose levels: reduction in fasting glucose levels
ZDF fa/fa male rats; FIG. 12, OGTT day 22
  plasma glucose following an oral glucose tolerance test: reducing fasting plasma glucose
ZDF fa/fa male rats; FIG. 13, first three weeks of the study
  fed plasma glucose levels: lowering of fed plasma glucose levels
[1]
  EC50: 54 nM
